The results in this text go back to patent publication US10968227B2, “Isoquinoline ether compounds as mGluR4 allosteric potentiators, compositions, and methods of treating neurological dysfunction” (Vanderbilt University, priority 2016, dated 2021).

Data set [1] is described as follows: Rat intrinsic and hepatic clearance. The format is in vitro ADME.
Data set [2] can be described thus: Human intrinsic and hepatic clearance. The class given is in vitro ADME.
Data set [3] can be described thus: Kinetic solubility. The class given is physicochemical. The note with it: kinetic from dmso stock.
Data set [4] can be described thus: Rat plasma fraction unbound. The following applies: read-out: Rat Fu Plasma. The format is in vitro ADME.
A short description of data set [5]: Rat brain fraction unbound. The format is in vitro ADME. The note with it: read-out: Rat Fu Brain.
Data set [6] can be described thus: Brain-plasma partition. The class given is in vivo. The note with it: rat; for unbound brain-to-plasma partition coefficient (Kp,uu): unbound brain-plasma ratio, read-out: Brain-Plasma Kp,ω.
A short description of data set [7]: Human plasma fraction unbound. The class given is in vitro ADME. The following applies: read-out: Human Fu Plasma.

Structures are written as SMILES. Converted amounts (≈) assume the structure as drawn.

Usually CLint scaled stands for the capacity of the preparation to metabolise the compound, expressed as a volume cleared per time. Higher therefore signals rapid turnover. One may read the kinetic solubility as the concentration staying in solution when a stock, usually in DMSO, is diluted into the medium. Take `Fc1cnc2c(Nc3ccc4c(OCC5COCCO5)nccc4c3)n[nH]c2c1` (stereo not shown) [Compound 100]: in data set [1], the CLint scaled worked out at 156 mL/min/kg and the “Rat CLhep” value is listed as 48.3 mL/min/kg. In addition, in data set [2], the CLint scaled stood at 46.1 mL/min/kg and the “Human CLhep” value was 14.4 mL/min/kg. The compound further yielded a kinetic solubility in data set [3] of 1.1 ± 0.6 µM (≈ 0.435 µg/mL).

By Kp is commonly meant tissue or fluid exposure divided by exposure in the circulation. As to `c1cnc2[nH]nc(Nc3ccc4c(OCC5CCCCO5)nccc4c3)c2c1` (stereo not shown) [Compound 76], the fraction unbound in data set [4] is 0.01; in data set [5] it was 0.001; in data set [7] it was 0.008. The Kp in data set [6] was 1.27. In addition, in data set [6], the unbound brain-to-plasma partition coefficient (Kp,uu) worked out at 0.13.

In the case of `C[C@@H]1C[C@H](Oc2nccc3cc(Nc4n[nH]c5cccnc45)ccc23)CO1` [Compound 89], in data set [1], the intrinsic clearance (CLint scaled) worked out at 204 mL/min/kg and the “Rat CLhep” value stood at 52.1 mL/min/kg. Besides, in data set [2], the CLint scaled came out at 37.8 mL/min/kg and the “Human CLhep” value came out at 13.5 mL/min/kg. The compound further yielded a solubility (kinetic) in data set [3] of 2.7 ± 0.4 µM (≈ 0.976 µg/mL).

In the case of `Fc1cnc2c(Nc3ccc4c(O[C@H]5CCOC5)nccc4c3)n[nH]c2c1` [Compound 95], in data set [1], the intrinsic metabolic clearance (CLint scaled) was found to be 127 mL/min/kg and the “Rat CLhep” value was 45.1 mL/min/kg. Moreover, in data set [2], the CLint scaled is 40.3 mL/min/kg and the “Human CLhep” value is 13.6 mL/min/kg. The same compound returned a kinetic solubility in data set [3] of 0.4 µM (≈ 0.146 µg/mL).

In the case of `C[C@H]1OCC[C@H]1Oc1nccc2cc(Nc3n[nH]c4cccnc34)ccc12` [Compound 91], in data set [1], the CLint scaled was determined as 377 mL/min/kg and the “Rat CLhep” value came to 59.0 mL/min/kg. Also, in data set [2], the CLint scaled was 109 mL/min/kg and the “Human CLhep” value turned out to be 17.6 mL/min/kg. Further, the kinetic solubility in data set [3] is 3.3 ± 0.2 µM (≈ 1.19 µg/mL).

As to `CO[C@H](C)COc1nccc2cc(Nc3n[nH]c4nccnc34)ccc12` [Compound 84], the fraction unbound in data set [4] was determined as 0.027. Moreover, the fraction unbound in data set [5] was 0.008. In data set [6], the partition ratio (Kp) turned out to be 1.11 and the unbound brain-to-plasma partition coefficient (Kp,uu) is 0.33. In data set [1], the intrinsic clearance (CLint scaled) came out at 145 mL/min/kg and the “Rat CLhep” value worked out at 47.2 mL/min/kg. In addition, in data set [2], the CLint scaled is 75.3 mL/min/kg and the “Human CLhep” value is 16.4 mL/min/kg. Moreover, in data set [7], the fraction unbound worked out at 0.019.

Consider `CO[C@H](C)COc1nccc2cc(Nc3n[nH]c4ncccc34)ccc12` [Compound 78], for which the figures for the fraction unbound in data set [4], in data set [5] and in data set [7] were 0.042, 0.004 and 0.023, respectively. The Kp in data set [6] came out at 0.99. Also, the unbound brain-to-plasma partition coefficient (Kp,uu) in data set [6] is 0.09.

In the case of `CCOCCOc1nccc2cc(Nc3n[nH]c4ncccc34)ccc12` [Compound 75], the fraction unbound in data set [4] is 0.031. For the same compound, in data set [5], the fraction unbound came out at 0.004. In data set [6], the concentration ratio (Kp) came to 1 and the unbound brain-to-plasma partition coefficient (Kp,uu) amounted to 0.13. Besides, in data set [1], the intrinsic clearance (CLint scaled) is 456 mL/min/kg and the “Rat CLhep” value came to 60.7 mL/min/kg. Also, in data set [2], the CLint scaled was 71.8 mL/min/kg and the “Human CLhep” value amounted to 16.2 mL/min/kg. Besides, the fraction unbound in data set [7] came out at 0.021.

`c1cc2cc(Nc3n[nH]c4nccnc34)ccc2c(O[C@H]2CCOC2)n1` [Compound 59] displayed a kinetic solubility in data set [3] of 2.6 ± 1.6 µM (≈ 0.906 µg/mL).

In the case of `c1cnc2c(Nc3ccc4c(OCC5CCOCC5)nccc4c3)n[nH]c2c1` [Compound 68], the fraction unbound in data set [4] stood at 0.009; in data set [5], 0.001; in data set [7], 0.008. Moreover, the Kp in data set [6] is 1.06. The unbound brain-to-plasma partition coefficient (Kp,uu) in data set [6] is 0.12.

Regarding `c1cnc2[nH]nc(Nc3ccc4c(O[C@@H]5CCOC5)nccc4c3)c2c1` [Compound 65], the fraction unbound in data set [4] worked out at 0.043; in data set [5], 0.003; in data set [7], 0.028. The Kp in data set [6] is 1.28. The unbound brain-to-plasma partition coefficient (Kp,uu) in data set [6] was 0.09.

In the case of `c1cnc2[nH]nc(Nc3ccc4c(OCC5CCOCC5)nccc4c3)c2c1` [Compound 77], the fraction unbound in data set [4] was determined as 0.008; in data set [5], 0.002; in data set [7], 0.013. In data set [6], this compound displayed a partition ratio (Kp) of 1.59. The unbound brain-to-plasma partition coefficient (Kp,uu) in data set [6] came out at 0.4.
